Reference: patent US9629863B2, “CDK5 inhibitors and therapeutic uses thereof” (The Hong Kong University of Science and Technology, priority 2009, dated 2017)
Values belong to the compound of their own block, whether it stands above or below them.

What was measured:
[1] = biological target: Cdk1/cyclin B (Homo sapiens, UniProt P06493); experiment: Z'-LYTE kinase assay, Cdk1/cyclin B; assay type: biochemical; details: FIG. 8-10, in words
Procedure: (§1) Cdk5 kinase assay was performed by adding Z′-LYTE™ peptide substrate and ATP together with Cdk5/p25 or Cdk5/p35 kinase solution in a 384-well black polystyrene plate (Corning 3676). The plate was then incubated for one hour at room temperature. Development solution was then added in the dark for another hour. Finally, stop solution was added and the coumarin and fluorescein emission signals were measured on a fluorescence plate reader (Tecan, infinite F500) (excitation: 400 nm, emission 445 and […], respectively). To calculate the activity of cdk5/p25 and Cdk5/p35, Z′-LYTE phosphopeptide was used as a 100% phosphorylation control while nonphosphorylated Z′-LYTE peptide is used as a 0% phosphorylation control to establish the maximal and minimal emission ratio values which enable to calculate the percentage of kinase phosphorylation. To determine the inhibitory effect on cdk5 activity, fractions and compounds to be tested were included in the kinase reaction. Zero inhibition was determined by using DMSO (solvent) instead of the compounds in the reaction. […]. Assays were done in quadruplicates and data was averaged from at least 4 independent experiments. Similar experimental protocols were performed for Cdk1/cyclin B and Cdk2/cyclin A kinase activity study. Activity of each kinase complex was evaluated by titration, and the resultant value of EC30 was used in the inhibitory study. Since activity of kinase complexes varies with different batches of preparation, EC30 will be determined in each new batch of kinases. […] Kinetic studies of compounds were performed by Cdk5/p25 kinase assays with various concentrations of ATP and tested compounds. The kinetic parameters were determined by a nonlinear least-squares program using GraphPad Prism 5 software.

[2] = biological target: Cdk5/p35 (Homo sapiens, UniProt Q00535); experiment: FRET-based Z'-LYTE Cdk5 kinase assay, Cdk5/p35; assay type: biochemical; details: for inhibitory effect on Cdk5/p35: FIG. 8-10, in words; for inhibition at 30 µM: compound 30 μM, 30 ng/ml Cdk5/p35, FIG. 3
Sequence of Cdk5/p35 (Q00535 whole entry, species assumed): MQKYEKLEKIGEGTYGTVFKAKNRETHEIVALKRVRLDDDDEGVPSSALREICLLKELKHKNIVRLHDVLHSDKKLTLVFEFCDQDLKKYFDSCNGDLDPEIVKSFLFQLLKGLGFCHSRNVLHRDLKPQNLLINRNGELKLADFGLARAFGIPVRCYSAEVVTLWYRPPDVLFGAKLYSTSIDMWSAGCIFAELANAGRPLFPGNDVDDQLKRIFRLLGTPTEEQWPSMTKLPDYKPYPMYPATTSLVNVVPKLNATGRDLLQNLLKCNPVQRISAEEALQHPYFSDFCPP
Sequence of Cdk5/p35 (Q15078 whole entry partner, species assumed): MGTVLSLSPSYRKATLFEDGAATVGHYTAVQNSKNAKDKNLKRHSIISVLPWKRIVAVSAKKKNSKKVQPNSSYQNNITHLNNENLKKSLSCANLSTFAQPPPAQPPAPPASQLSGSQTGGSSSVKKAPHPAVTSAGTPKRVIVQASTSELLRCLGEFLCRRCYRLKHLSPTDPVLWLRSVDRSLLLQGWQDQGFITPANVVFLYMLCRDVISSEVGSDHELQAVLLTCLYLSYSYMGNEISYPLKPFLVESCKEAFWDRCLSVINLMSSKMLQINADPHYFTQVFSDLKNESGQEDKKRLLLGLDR
Procedure: (§2) Cdk5 kinase assay was performed as described in the instruction manual (Invitrogen, cat. no. PV3673). This assay employs a FRET-based, coupled-enzyme format and is based on the differential sensitivity of phosphorylated and non-phosphorylated peptides to proteolytic cleavage. The assay uses a synthetic peptide substrate (the Z′-LYTE™ peptide substrate) that is labeled with a donor fluorophore (coumarin) and an acceptor fluorophore (fluorescein) to make up a FRET pair. In the primary reaction, Cdk5 transfers the γ-phosphate of ATP to a serine/threonine residue on the substrate, while the presence of a kinase inhibitor in the primary reaction suppresses phosphorylation. […] Cleavage disrupts FRET between the donor and acceptor fluorophores on the non-phosphorylated substrate, while uncleaved phosphorylated substrate maintains FRET. The effectiveness of the compounds on inhibiting the Cdk5 activity is then measured by calculating the emission ratio.
(§3) The plate was then incubated for one hour at room temperature. Development solution was then added in the dark for another hour. […] To calculate the activity of cdk5/p25 and Cdk5/p35, Z′-LYTE phosphopeptide was used as a 100% phosphorylation control while nonphosphorylated Z′-LYTE peptide is used as a 0% phosphorylation control to establish the maximal and minimal emission ratio values which enable to calculate the percentage of kinase phosphorylation. To determine the inhibitory effect on cdk5 activity, fractions and compounds to be tested were included in the kinase reaction. Zero inhibition was determined by using DMSO (solvent) instead of the compounds in the reaction. […] Assays were done in quadruplicates and data was averaged from at least 4 independent experiments. Similar experimental protocols were performed for Cdk1/cyclin B and Cdk2/cyclin A kinase activity study. Activity of each kinase complex was evaluated by titration, and the resultant value of EC30 was used in the inhibitory study. Since activity of kinase complexes varies with different batches of preparation, EC30 will be determined in each new batch of kinases. […] Kinetic studies of compounds were performed by Cdk5/p25 kinase assays with various concentrations of ATP and tested compounds. The kinetic parameters were determined by a nonlinear least-squares program using GraphPad Prism 5 software.
(§4) Using the FRET-based Cdk5 kinase assay method described above, the compounds of the present invention were examined for their inhibitory effects on Cdk5 kinase activity. The amount of Cdk5/25 and Cdk5/p35 used for screening Cdk5 inhibitors is EC30 of the kinase complex and the EC30 was determined with a titration study of kinase complex. The effectiveness of the compounds on inhibiting Cdk5 activity was then measured by comparing the percent phosphorylation of peptide substrates by Cdk5 kinase in the presence of test compounds and percent phosphorylation of peptide substrates by Cdk5 without test compounds.

[3] = biological target: Cdk5/p25 (Homo sapiens, UniProt Q00535); experiment: FRET-based Z'-LYTE Cdk5 kinase assay, Cdk5/p25; assay type: biochemical; details: for mode of inhibition on Cdk5/p25 complex: 0.5, 1, 2 and 4 μM, increasing ATP, FIG. 11; for IC50: Cdk5/p25, Table 1; for inhibitory effect on Cdk5/p25: FIG. 8-10, in words; for inhibition at 30 µM: compound 30 μM, 30 ng/ml Cdk5/p25, FIG. 3; for inhibition at 80 µM: Cdk5/p25, at 80 μM; for inhibition at 200 µM: Cdk5/p25, at 200 μM
Sequence of Cdk5/p25 (Q00535 whole entry, species assumed): as the sequence (Q00535 whole entry, species assumed) above
Sequence of Cdk5/p25 (Q15078 99-307 partner limits assumed, species assumed): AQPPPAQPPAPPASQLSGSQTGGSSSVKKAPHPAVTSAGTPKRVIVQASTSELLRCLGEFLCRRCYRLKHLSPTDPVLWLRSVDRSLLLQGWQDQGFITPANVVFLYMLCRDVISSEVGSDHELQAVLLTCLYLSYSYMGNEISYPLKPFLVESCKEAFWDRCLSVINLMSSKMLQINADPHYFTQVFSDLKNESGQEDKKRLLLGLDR
Procedure: as §2, §3, §4
Seven natural compounds isolated from Rhodiola rosea (F199) were selected for IC50 and maximal inhibition determination. Various concentrations of the F199 compounds were incubated with Cdk5/p25. The effectiveness of the compounds on inhibiting Cdk5 activity was then calculated by comparing the percent phosphorylation of peptide substrates by Cdk5/p25 in the presence of test compounds and percent phosphorylation of peptide substrates by Cdk5/p25 without test compounds.

[4] = biological target: Cdk2/cyclin A (Homo sapiens, UniProt P24941); experiment: Z'-LYTE kinase assay, Cdk2/cyclin A; assay type: biochemical; details: FIG. 8-10, in words
Procedure: as §1

[5] = biological target: Cdk5 (Homo sapiens, UniProt Q00535); details: reported elsewhere, controls; cited from earlier work
Sequence of Cdk5 (Q00535 whole entry, species assumed): as the sequence (Q00535 whole entry, species assumed) above
Sequence of Cdk5 (Q15078 whole entry partner, species assumed): as the sequence (Q15078 whole entry partner, species assumed) above

[6] = system: rat cortical neurons; experiment: Aβ assay (MTT) in cortical neurons; assay type: cell-based; details: about 30 and 50 μM, Aβ25-35 10 μM, vs DMSO control
Procedure: Embryonic rat cortical neurons (7 DIV) were pre-treated with various concentrations of compounds (3-50 μM) and then co-incubated with Aβ25-35 (10 μM). After overnight incubation, the MTT assay was performed. Cell survival was calculated as a percentage compared to the vehicle control (DMSO). Assays were conducted in duplicates and data were compared with student-t test. *=P<0.05.
Cortical neurons at 7 DIV in culture isolated from embryonic day 18 rats were used as cell models in the assay. Toxicity caused by Aβ25-35 peptide in these cells was evaluated by MTT detection after […]. The Aβ assay was performed to investigate the ability of the invention to protect cortical neurons from cell death induced by exogenous Aβ25-35 peptide addition. Assays were done in duplicates and data was averaged from at least 3 independent experiments.
Exogenous addition of Aβ initiates cell death of neuronal cultures via apoptosis. The MTT assay, a well-known cell death assay, was performed to study the ability of the compounds of the present invention to prevent Aβ-induced excitotoxicity in primary cortical neuronal cells. Embryonic rat cortical neurons (7 DIV) were pre-treated with various concentrations of the compounds (3-50 μM) and then co-incubated with Aβ25-35 (10 μM). After overnight incubation, the MTT assay was performed. Cell survival was calculated as a percentage compared to the vehicle control (DMSO). Assays were conducted in duplicates and data were analyzed with student-t test. *=P<0.05. The results of exemplary compounds, F199-C6, F199-C34 and F199-C22 are presented in FIG. 5, FIG. 6 and FIG. 7, respectively.

[7] = system: formalin-induced pain; experiment: Animal model of pain (formalin paw-licking); assay type: in vivo, mice
Procedure: Adult ICR mice (6-8 week-old) habituated in the experimental room for 3 days before the testing. Testing was conducted from 9 am to 3 pm. Mice were randomly grouped and weighed. Mice were pretreated with a single dose of F199-C16 (10-100 mg/kg, intraperitoneal injection) and then injected with 10 μl of 2.5% formalin in the subplantar of the right hind paw. The licking time (in seconds) was recorded during 0-10 minutes (early phase) and in 11-40 minutes (late phase) after formalin injection. The whole process was monitored and recorded by a digital monochrome video camera. Data were expressed as the mean±SEM. (*p<0.05; ANOVA, with Student-Newman Keuls test).
The effect of F199-C16 was examined in an animal model of pain. The pain was induced by injecting formalin into the paw of the mouse.

Sequence of Cdk1/cyclin B (P06493 whole entry, species assumed): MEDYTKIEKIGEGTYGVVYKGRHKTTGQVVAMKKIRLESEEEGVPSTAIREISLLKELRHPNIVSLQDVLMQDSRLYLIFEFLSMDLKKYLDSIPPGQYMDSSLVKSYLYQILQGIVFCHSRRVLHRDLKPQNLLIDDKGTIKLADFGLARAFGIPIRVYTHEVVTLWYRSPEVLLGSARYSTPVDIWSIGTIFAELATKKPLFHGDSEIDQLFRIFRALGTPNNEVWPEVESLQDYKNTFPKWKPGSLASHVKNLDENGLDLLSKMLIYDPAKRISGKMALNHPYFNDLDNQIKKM
Sequence of Cdk1/cyclin B (P14635 whole entry partner, species assumed): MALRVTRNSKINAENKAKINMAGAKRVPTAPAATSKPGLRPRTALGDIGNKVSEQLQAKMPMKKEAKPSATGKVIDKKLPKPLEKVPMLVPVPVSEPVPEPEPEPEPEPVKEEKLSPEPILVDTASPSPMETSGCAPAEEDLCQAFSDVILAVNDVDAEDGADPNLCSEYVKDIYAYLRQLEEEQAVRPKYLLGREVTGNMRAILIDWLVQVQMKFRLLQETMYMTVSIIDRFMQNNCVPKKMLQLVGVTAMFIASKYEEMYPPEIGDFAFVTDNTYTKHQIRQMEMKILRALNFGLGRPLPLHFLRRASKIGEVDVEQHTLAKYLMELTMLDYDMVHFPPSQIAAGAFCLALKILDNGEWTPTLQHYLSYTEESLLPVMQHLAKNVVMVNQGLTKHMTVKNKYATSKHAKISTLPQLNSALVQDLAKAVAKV

Compound: COc1ccc(-c2oc3c(O)c(O)cc(O)c3c(=O)c2O)cc1 [Compound F199-C23, 4′-methoxyherbacetin]
- inhibitory effect on Cdk1/cyclin B [1]: inhibited similarly
- inhibitory effect on Cdk5/p35 [2]: inhibited similarly
- inhibition at 30 µM [2]: 50 to 75%
- mode of inhibition on Cdk5/p25 complex [3]: mixed inhibition
- IC50 [3]: 1.21 µM
- inhibition at 20 µM ([3]; Cdk5/p25, at 20 μM, read-out: Maximum inhibition): 45%
- inhibitory effect on Cdk5/p25 [3]: inhibited similarly
- inhibition at 30 µM [3]: 50 to 75%
- inhibitory effect on Cdk2/cyclin A [4]: minimal

Compound: O=c1c(O)c(-c2ccc(O)cc2)oc2cc(O)cc(O)c12 [Compound F199-C2, kaempferol]
- reported inhibition of Cdk5 activity [5]: moderately inhibit Cdk5 activity

Compound: O=C(O[C@@H]1Cc2c(O)cc(O)cc2O[C@@H]1c1cc(O)c(O)c(O)c1)c1cc(O)c(O)c(O)c1 [Compound F199-C35, epigallocatechin-3-gallate]
- IC50 [3]: 14.7 µM

Compound: O=C(O)c1cc(O)c(O)c(O)c1 [Compound F199-C4, gallic acid]
- inhibition at 30 µM [2]: 25 to 50%
- IC50 [3]: 40.6 µM
- inhibition at 200 µM ([3]; read-out: Maximum inhibition): 64.2%
- inhibition at 30 µM [3]: 25 to 50%

Compound: CC[C@H](CC[C@@H](C)[C@H]1CC[C@H]2[C@@H]3CC=C4C[C@@H](O[C@@H]5O[C@H](CO)[C@@H](O)[C@H](O)[C@H]5O)CC[C@]4(C)[C@H]3CC[C@]12C)C(C)C [Compound F199-C1, daucosterol, reference compound]
- reported inhibition of Cdk5 activity [5]: moderately inhibit Cdk5 activity
- inhibition at 30 µM [2]: < 25%
- inhibition at 30 µM [3]: < 25%

Now from value to compound, other results behind:

- inhibition at 30 µM [2]: < 25%
- IC50 [3]: 20.1 µM
- inhibition at 80 µM ([3]; read-out: Maximum inhibition): 46.5%
- inhibition at 30 µM [3]: < 25%
Compound: O=C(OCC1OC(OC/C=C/c2ccccc2)C(O)C(O)C1O)c1cc(O)c(O)c(O)c1 (stereo not shown) [Compound F199-C22, 6-O-galloyl rosin]
- neuronal cell survival against Aβ toxicity [6]: significantly promoted neuronal cell survival

- inhibition at 30 µM [2]: 25 to 50%
- IC50 [3]: 34.4 µM
- inhibition at 200 µM ([3]; read-out: Maximum inhibition): 56.6%
- inhibition at 30 µM [3]: 25 to 50%
Compound: O=c1c(O)c(-c2ccc(O)cc2)oc2c(OC3OCC(O)C(O)C3O)c(O)cc(O)c12 (stereo not shown) [Compound F199-C6, rhodalin]
- neuronal cell survival against Aβ toxicity [6]: significantly promoted neuronal cell survival

- inhibitory effect on Cdk1/cyclin B [1]: less effect
- inhibitory effect on Cdk5/p35 [2]: less effect
- inhibition at 30 µM [2]: 50 to 75%
- IC50 [3]: 5.63 µM
- inhibition at 80 µM ([3]; read-out: Maximum inhibition): 70%
- inhibitory effect on Cdk5/p25 [3]: potent inhibitory effect
- inhibition at 30 µM [3]: 50 to 75%
- inhibitory effect on Cdk2/cyclin A [4]: less effect
Compound: O=C(OCC1OC(Oc2ccc(O)cc2)C(O)C(O)C1O)c1cc(O)c(O)c(O)c1 (stereo not shown) [Compound F199-C34, 6-O-galloyl arbutin]
- neuronal cell survival against Aβ toxicity [6]: significantly promoted neuronal cell survival

- inhibitory effect on Cdk1/cyclin B [1]: potently
- inhibitory effect on Cdk5/p35 [2]: milder inhibition
- inhibition at 30 µM [2]: 50 to 75%
- mode of inhibition on Cdk5/p25 complex [3]: mixed inhibition
- IC50 [3]: 3.24 µM
- inhibition at 200 µM ([3]; read-out: Maximum inhibition): 87.5%
- inhibitory effect on Cdk5/p25 [3]: milder inhibition
- inhibition at 30 µM [3]: 50 to 75%
- inhibitory effect on Cdk2/cyclin A [4]: minimal
Compound: CC1OC(Oc2c(O)cc(O)c3c(=O)c(O)c(-c4ccc(O)cc4)oc23)C(O)C(O)C1O (stereo not shown) [Compound F199-C16, litvinolin]
- licking time, early phase (0-10 min) ([7]; 100 mg/kg i.p.): significantly reduced the licking time
- licking time, late phase (11-40 min) ([7]; 100 mg/kg i.p.): significantly reduced the licking time
- licking time of right hind paw ([7]; 10-100 mg/kg i.p., single dose, formalin): reduced the licking time of right hind paw in a dose-dependent manner
